Patent publication US20190216923A1, “METHODS AND COMBINATION THERAPY TO TREAT CANCER” (Array BioPharma Inc., priority 2018, published 2019)

What was measured:
melanoma cell lines = test: Cell surface MHC class I expression, summary over the melanoma cell line panel; format: cell-based, human
Procedure: The goal of this study was to measure the effects of binimetinib on cell surface MHC class I expression in various melanoma cell lines. In this study, eight melanoma cell lines were evaluated: MEL-JUSO (NRAS Q61L mutation), IPC-298 (NRAS Q61L mutation), A375 (BRAF V600E, homozygous mutation), HS936.T (NRAS Q61K mutation and BRAF N581K mutation), MM485 (NRAS Q61R mutation), SK-MEL-2 (NRAS Q61R mutation), MM415 (NRAS Q61L mutation), Malme-3M (BRAF V600E, heterozygous mutation). The cells lines were seeded into flat bottom 96-well tissue culture plates at a density of 5000 cells per well and allowed to adhere overnight. The following day cells were treated with vehicle control (0.25% DMSO) or varying dilutions of Binimetinib (0.7 nM-25000 nM) for 1 hour. Cells were then treated with vehicle control or 100 ng/ml IFNgamma (R&D systems) for 72 hours. Cells were washed, trypsinized, and stained with Alexa Fluor® 647 anti-human HLA-A,B,C antibody (W6/32, eBioscience) and analyzed on a BD FACSCanto II flow cytometer. An IFNg titration and time course were performed for assay optimization. Maximal induction of MHC class I expression was seen 100 ng/mL of IFNγ (see, e.g., FIGS. 1 and 2).

[1] = Binimetinib steady state exposure quoted in figure legends; format: in vivo
[2] = test system: KRas mutant CT26 murine colon syngeneic tumors; test: CT26 syngeneic tumor growth, survival and tolerability; format: in vivo; conditions: table
Procedure: 1% CMC/0.5% Tween-80 (CMCT) was prepared by adding 960 mL of distilled water to a 1000 mL Pyrex® glass bottle with a stir bar in the bottom, and was used as the oral vehicle. […] Carboxymethylcellulose (5 g, CMC, low viscosity, Sigma C5678, Batch #033K0008) was added slowly, over one hour. The solution was stirred until the CMC dissolved and the solution was clear. 30 mg/kg MEK162 (Binimetinib, 100% active) was prepared as a white, homogeneous suspension in CMCT. MEK162 was administered in 10 mL/kg and dosed at 30 mg/kg (3.0 mg/mL) by oral gavage. To prepare, dry test compound (90 mg) was weighed and 30 mL CMCT added. Dose suspension was sonicated until a fine suspension was achieved (˜15 min). Final dose suspension was stored at 4° C. during live phase and sonicated to resuspend prior to dose administration. Dose suspension was prepared every 4-5 days or as needed. […]
Animals were monitored for tumor growth and body weight 2-3 times per week based on outgrowth kinetics. Tumor diameter was measured with digital calipers, and the tumor volume in mm^3 was calculated by the formula: Volume=((width)^2×length)/2. TGI was calculated on day 15. […]
Survival defined as morbidity, mortality or tumor size exceeding 1400 mm3. […] Cures: Animals with no palpable tumor at the end of the study were scored as cures. […]

CT26 tumors = test: T-cell fraction and clonality by immune sequencing (mmTCRB assay); format: in vivo, mouse; conditions: 5/10 tumors per group, FIG. 15
Procedure: Animals were monitored for tumor growth and body weight 2-3 times per week based on outgrowth kinetics. Tumor diameter was measured with digital calipers, and the tumor volume in mm^3 was calculated by the formula: Volume=((width)^2×length)/2. TGI was calculated on day 15. Animals were removed from study if found moribund or if tumor volume exceeded 1400 mm^3. At that time, tumor tissue was harvested and frozen for later analysis of T-cell clonality by immune sequencing (Adaptive Biotech, San Diego, Calif.). Food, water, temperature and humidity were according to Pharmacology Testing Facility performance standards (SOP's) which are in accordance with the 1996 Guide for the Care and Use of Laboratory Animals (NRC) and AAALAC-International.
The mechanism of combination activity was investigated by analyzing T-cell fraction and clonality by immune sequencing in 5/10 tumors from each group (FIG. 15). To determine the effect of binimetinib on the T cell repertoire of CT26 tumors, analysis was performed of mouse T-cell diversity, clonality and abundance as potential biomarkers by survey level sequencing of mouse tumor samples using the mmTCRB assay. Clonality was determined by quantitating the extent of mono- or oligoclonal expansion by measuring the shape of the clone frequency distribution. […]

**Q.** For `Cn1cnc2c(F)c(Nc3ccc(Br)cc3F)c(C(=O)NOCCO)cc21` [Binimetinib, 6-(4-bromo-2-fluorophenylamino)-7-fluoro-3-methyl-3H-benzoimidazole-5-carboxylic acid (2-hydroxyethoxy)-amide], which “increase of IFNg-induced MHC class I” value (melanoma cell lines; all tested cell lines, +IFNg) is on record?
**A.** The value was 1.5-4 fold.

**Q.** What about the “increase in MHC class I cell surface expression” value (melanoma cell lines; in the 6 of 8 melanoma cell lines that responded, no IFNg) of the same compound?
**A.** The value was 1.5-3 fold.

**Q.** What about the “Steady state Cmax, free fraction” value ([1]; free fraction) of the same compound?
**A.** The value was 26 nM.

**Q.** And the “Trough (day 15), free fraction” value ([1]; free fraction, day 15)?
**A.** The value was 8.1 nM.

**Q.** What about the Cmax ([1]; in vivo, total) of the same compound?
**A.** Its Cmax is 1000 nM.

**Q.** What about the “Median Survival” value [2] of the same compound?
**A.** Its value is 26.

**Q.** And the T-cell clonality (CT26 tumors)?
**A.** Its T-cell clonality is “trend for decreased”.

**Q.** And the T-cell fraction (CT26 tumors)?
**A.** Its T-cell fraction is “trend for decreased”.
